Results: patent US4200639A, “Sesbanine and the use thereof in treating leukemic tumors” (The United States of America as represented by the …, priority 1979, dated 1980)
≈ marks a conversion by molar mass, not a printed value.

Assays:
[1] = system: lymphocytic leukemia cells of the strain P388 (PS tumors); experiment: Survival of mice implanted with lymphocytic leukemia P388 (NCI Protocol 1.200); settings: mouse, in vivo
Description: The effectiveness of alkaloid compounds against lymphocytic leukemia cells of the strain P388 (PS tumors) implanted in mice is another method of determining activity. These assays are made according to the National Cancer Institute Protocol 1.200 described in Geran et al. referred to above. […] Starting 24 hr. after the tumor implantation, previously determined dosages of each compound were injected intraperitoneally once a day for 9 days. Survival time of treated leukemic mice is compared to that of untreated leukemic mice (T/C×100). A T/C value of 100% indicated no activity.
^2 All mice were male, CD2 F1.
^3 The injection vehicle was saline.
^4 One intraperitoneal injection per day for 9 days.

KB Cell = KB Cell Culture Screen (NCI Protocol 1.600); type: cell-based
Text: The chemotherapeutic activities of the fractions obtained in the isolation procedure may be determined by a KB Cell Culture Screen in accordance with the National Cancer Institute Protocol 1.600 [Geran et al., Cancer Chemother.

O=C1NC(=O)[C@@]2(CC[C@@H](O)C2)c2ccncc21 (relative stereo) [sesbanine, trans-3-hydroxyspiro[cyclopentane-1,4'(1'H)[2,7]naphthyridine]-1',3'(2'H)-dione]
activity against leukemia in animals (in words) [1]: potent activity against leukemia in animals | IC50 (KB Cell; Homo sapiens, KB, 72 h, 3 days after drug addition, active if ED 50 ≤30 μg./ml., read-out: ED 50 (dose that inhibits growth to 50% of control growth)): 0.047 µg/mL (≈ 0.202 µM) | activity of fractions during isolation (in words) (KB Cell; among fractions of the respective separation step, Example 1): the most active
